In US20070160684A1, “Methods for increasing cancer cell chemosensitivity” (priority 2005, published 2007):

Assays:
[1] = test system: Pa-4 and Pa-4/HMGA2 cells; assay: MTT cell viability assay; type: cell-based; conditions: Dox 0-7 μM or irinotecan 0-50 μM
[2] = test system: ATM Ser1981 phosphorylation; assay: Western analysis of ATM phosphorylation in pEBS7 and YZ5 cells; type: cell-based; conditions: 2 μM Dox
Description: ATM-deficient pEBS7 cells and ATM-proficient YZ5 cells were maintained in DMEM and 10% FBS with 100 μg/ml hygromycin at 37° C. with 5% CO2. pEBS7 and YZ5 are stable clones derived from ATM-deficient fibroblasts (AT22IJE-T) with empty vector and Flag-tagged wild-type ATM, respectively (Li 2000). Cells were treated with 2 μM Dox or vehicle only. At various time points after treatment, equal amounts of protein lysates were removed and subjected to Western analyses using monoclonal anti-phospho-ATM antibodies (Ser1981) (Upstate Cell Signaling, Waltham, Mass.).

[3] = test system: ATM-deficient pEBS7 cells and ATM-proficient YZ5 cells; assay: MTT cell viability assay; type: cell-based; conditions: Dox 0-1 μM
[4] = test system: H2AX Ser139 phosphorylation; assay: Western analysis of H2AX phosphorylation in Pa-4 and Pa-4/HMGA2 cells; type: cell-based; conditions: 1 μM Dox
Description: (§1) To ascertain whether HMGA2 effects Dox-induced ATM signaling activation, phosphorylation of ATM Ser1981 and H2AX Ser139 was assayed in the presence and absence of Dox (2 μM in ATM assays, 1 μM in H2AX assays). At various timepoints after Dox treatment, cell lysates were removed and subjected to Western analyses using monoclonal anti-phospho-ATM antibodies (Ser1981), polyclonal anti-ATM antibodies (Santa Cruz Biotechnology, Santa Cruz, Calif.), monoclonal anti-phospho-H2AX antibodies ([…]) (Upstate Cell Signaling), or anti-H2AX antibodies. Control Western analyses were performed using monoclonal anti-actin antibodies. […] HeLa and HeLa/HMGA2 cells
(§2) NU7026 (Calbiochem, San Diego, Calif.) was dissolved in DMSO at 5 mM and stored at −20° C. […] Cell lysates were removed and subjected to Western analyses using monoclonal anti-phospho-H2AX (Ser 139) antibodies. Control Western analyses were performed using monoclonal anti-actin antibodies.

ATM phosphorylation = assay: Western analysis of ATM phosphorylation in HeLa and HeLa/HMGA2 cells; type: cell-based; conditions: Dox
Description: as §1
The effect of HMGA2 on ATM and H2AX phosphorylation in HeLa cells was measured using the protocol described above. […] As for H2AX, results were similar to those observed in Pa-4 cells.

H2AX phosphorylation = assay: Western analysis of H2AX phosphorylation in HS578T and HCC1419 cells; type: cell-based; conditions: 2 μM Dox
Description: as §2
Experiments were repeated using HS578T and HCC1419 cells treated with 2 μM rather than 1 μM Dox.

[5] = test system: DNA-PKcs pT2609 and pS2056; assay: Western analysis of DNA-PKcs phosphorylation; type: cell-based
Description: Dox treatment has been reported to lead to rapid and transient phosphorylation of DNA-PKcs at Thr-2609 (pT2609) and Ser-2056 (pS2056), respectively (Chen 2005). Equal amounts of protein lysates from HeLa and HeLa/HMGA2 cells were treated with 2 μM or 5 μM Dox, then subjected to Western analyses using polyclonal anti-phospho-DNA-PKcs-T2609/S2056 (Dr. David Chen, Univ. of Texas Southwestern Medical Center) and monoclonal anti-DNA-PKcs antibodies (Santa Cruz, Calif.). Control lysates were treated with vehicle only. Untreated and Dox-treated MO59K (DNA-PKcs proficient) and MO59J (DNA-PKcs deficient) cells were used as an additional control to assure antibody specificity.
To confirm that HMGA2 expression is at least in part responsible for sustained DNA-PKcs pT2609 and pS2056 signals following Dox exposure, siRNA was utilized to downregulate endogenous HMGA2 expression in Hs578T cells. siRNA against HMGA2 (si-HMGA2) was described previously (Boo 2005). The sense and antisense were annealed to a working concentration of 20 μM by incubation with annealing buffer (5×: 30 mM HEPES pH 7.4, 100 mM potassium acetate, 2 mM magnesium acetate) at 90° C. for one minute followed by incubation at 37° C. for one hour. The annealed siRNA was stored at −20° C. Transfection of siRNA was performed with GeneEraser (Stratagene, Calif.) according to manufacturer's instruction. Briefly, cells were seeded to a confluency of 50% on the day of transfection. GeneEraser was pre-incubated at room temperature in serum-free medium ten minutes before the addition of siRNA. The GeneEraser/si-HMGA2 solution was then incubated at room temperature for an additional 15 minutes before addition to cells in a serum-containing medium. The cells were allowed to incubate for various time periods without any medium change post-transfection. Control cells were transfected with a scrambled siRNA. Cells were treated with Dox 48 hours after transfection.

[6] = test system: pSer15-p53 and pThr68-Chk2; assay: Western analysis of p53 and Chk2 phosphorylation in parental and engineered HeLa cells; type: cell-based; conditions: Dox (2 μM), HeLa/HMGA2 and HeLa/HMGA2(2K/R) cells
Description: pSer15-p53 and pThr68-Chk2 profiles following exposure to Dox in parental and engineered HeLa cells were assessed. […] Intriguingly, there was a noticeable accumulation of pSer15-p53 at 6 hours post-treatment and attenuation of pThr68-Chk2 at 2 hours post-treatment in HeLa/HMGA2 cells, compared with Dox-treated HeLa and HeLa/HMGA2(2K/R) cells. Together with results set forth in Example 25, HMGA2 appears to disrupt DNA damage response by interfering with the activation of DNA-PKcs, ATM and Chk2.

caspase-3 and p53 = assay: Western analysis of caspase-3 cleavage and p53 levels; type: cell-based; conditions: Dox
[7] = test system: PUMA and NOXA transcriptional activation; assay: Quantitative real-time RT-PCR of PUMA and NOXA; type: cell-based; conditions: 2 μM Dox
Pa-4 cells = conditions: 4 mM caffeine or 1 μM Dox
Description: Pa-4 and Pa-4/HMGA2 cells were seeded at 50-80% confluency in 35 mm dishes and serum starved overnight to synchronize cell cycle. […] Following treatment, cells were fixed in 70% ethanol overnight, stained with 20 μg/ml propidium iodide, and subjected to FACS analysis.
Apoptosis was quantified by assessing sub-G1 cell populations.

[8] = in a subject; cited from earlier work
[9] = test system: HS578T, HCC1419, and CHO cells; assay: MTT cell viability assay; conditions: Dox 0 to 2.5 μM

## COc1cccc2c1C(=O)c1c(O)c3c(c(O)c1C2=O)C[C@@](O)(C(=O)CO)C[C@@H]3O[C@H]1C[C@H](N)[C@H](O)[C@H](C)O1 [Dox, doxorubicin]
[1]; 72 hours
  difference in decrease of viability between Pa-4/HMGA2 and Pa-4 cells: much larger in Pa-4/HMGA2 cells than it was in Pa-4 cells
[1]; 72 hours after treatment
  cell viability / growth inhibition: decreased cell viability in a dose-dependent manner in both Pa-4 and Pa-4/HMGA2 cells
[2]
  ATM Ser1981 phosphorylation: detected between 0.5 and 2 hours after Dox treatment
[3]; 72 hours
  decrease in viability, pEBS7 versus YZ5: less pronounced in the ATM-negative pEBS7 cells
[3]; 72 hours after treatment
  cell viability: decreased cell viability in both cell types in a dose-dependent manner
[4]; Pa-4/HMGA2 cells
  induction of H2AX phosphorylation: ablation of Dox-mediated induction of H2AX phosphorylation
[4]; Pa-4 cells
  H2AX phosphorylation: rapid phosphorylation
ATM phosphorylation; HeLa cells
  ATM phosphorylation: rapid phosphorylation of ATM in HeLa cells
ATM phosphorylation; HeLa/HMGA2 cells
  ATM phosphorylation: no ATM phosphorylation was observed
H2AX phosphorylation; HCC1419 cells
  H2AX phosphorylation: induced H2AX phosphorylation
H2AX phosphorylation; HS578T cells
  H2AX phosphorylation: no increase in H2AX phosphorylation following Dox treatment
[5]; 2 μM or 5 μM Dox, two hours, HeLa/HMGA2 cells
  DNA-PKcs phosphorylation signals: Accumulation of DNA-PKcs phosphorylation signals
[5]; increasing concentrations of Dox
  DNA-PKcs phosphorylation signals, Hs578T versus HCC1419: recapitulated in HMGA2-expressing Hs578T breast cancer cells, but not in HMGA2-underexpressing HCC1419 breast cancer cells
[6]
  pSer15-p53 and pThr68-Chk2 signals: caused induction of pSer15-p53 and pThr68-Chk2 signals
caspase-3 and p53
  caspase-3 cleavage fragment: increased in HeLa/HMGA2, HepG2 and Hs578T cells
caspase-3 and p53; HeLa, HeLa/HMGA2, CL48, and HepG2 cells
  steady-state p53 levels: increased steady-state p53 levels
[7]; CL48 and HepG2 cells
  transcriptional activation of PUMA and NOXA: marked transcriptional activation of PUMA and NOXA at 8 hours after treatment
[7]; Hep3B cells and HeLa cells
  transcriptional activation of PUMA and NOXA: modest induction if any
Pa-4 cells
  apoptosis (sub-G1 cell population), single agent: increase in apoptosis
Pa-4 cells; 48 hours
  cell cycle distribution / cells in G2/M, single agent: greatly increased the number of cells in G2/M phase
[8]
  maximum cumulative dosage limited by side effects: 450 to 550 mg
[9]; 72 hours
  sensitivity to growth inhibition, HS578T versus HCC1419 and CHO: HS578T cells were substantially more sensitive to Dox-mediated growth inhibition than the other two cell types
[9]; 72 hours after treatment
  cell viability: decreased cell viability in a dose-dependent manner in all three cell types
